Source: US8354447B2, “mGLU receptors antagonists for treating disorders associated with mGLU receptors including addiction and depression” (The Scripps Research Institute, priority 2002, dated 2013)
Counter-ions that a name gives are not always drawn. Like-named read-outs stand apart in the source and are kept apart here.

Key:
[1] = tested on: male Wistar rats; test: ICSS thresholds during spontaneous nicotine withdrawal; format: in vivo, rat; conditions: for ICSS reward thresholds: 1 mg/kg, 30 min before the 18 h time-point
Description: (§1) Animals were trained to respond according to a modification of the discrete-trial current-threshold procedure of Kornetsky and Esposito (Fed Proc 38:2473-2476, 1979), which has been described in detail previously (Markou and Koob, 1992 Physiol Behav 51:111-119). Briefly, a trial was initiated by the delivery of a non-contingent electrical stimulus. […] The current intensity delivered was adjusted for each animal and typically ranged from 50 to 200 μA. […] After a variable inter-trial interval (7.5-12.5 sec, average of 10 sec), another trial was initiated with the delivery of a non-contingent electrical stimulus. […] Responding during the inter-trial interval delayed the onset of the next trial by 12.5 sec. Current levels were varied in alternating descending and ascending series. A set of three trials was presented for each current intensity. Current intensities were altered in 5 μA steps. In each testing session, four alternating descending-ascending series were presented. […] The overall threshold of the session was defined as the mean of the thresholds for the four individual series. Each testing session was ˜30 min in duration. The latency between the onset of the non-contingent stimulus and a positive response was recorded as the response latency. The response latency for each test session was defined as the mean response latency of all trials during which a positive response occurred. After establishment of stable ICSS reward thresholds, rats were tested in the ICSS procedure once daily except for the spontaneous nicotine withdrawal experiment when rats were tested at time-points according to the experimental design.
Osmotic mini-pumps were surgically removed from nicotine-treated rats (n=15) (defined as rats having been prepared with mini-pumps delivering 3.16 mg/kg/day nicotine free-base for at least seven days) or corresponding control rats (n=17; rats prepared with vehicle-containing mini-pumps). All rats were then tested in the ICSS procedure at 12, 18, 24, 36, 48 and 72 hr after the removal of osmotic mini-pumps. These time points were chosen based on the time course of threshold elevations previously observed during spontaneous nicotine withdrawal after removal of nicotine-delivering osmotic mini-pumps (Harrison et al., 2001, Neuropsychopharmacology 25:55-71; K.L.). […] Thirty min before being tested at the 18 h time-point, one group of nicotine withdrawing and one group of control rats were injected with LY341495 (1 mg/kg); the remaining rats were injected with vehicle.

[2] = tested on: Wistar rats; test: Nicotine self-administration under a fixed ratio schedule (LY341495, LY341495 and MPEP)
[3] = tested on: male Wistar rats; test: Brain stimulation reward (ICSS) under baseline conditions, paroxetine and p-MPPI; format: in vivo, rat
Description: Male Wistar rats (Charles River, Hollister, Calif.) (300-320 g at the start of the experiments) were housed in pairs in a temperature and humidity controlled environment with a 12 hr light/dark cycle. Food and water were available ad libitum. A different set of subjects was used for each experiment. All subjects were treated in accordance with the National Institutes of Health “Guide for the Care and Use of Laboratory Animals,” and the animal facilities and the experimental protocols were in accordance with the Association for the Assessment and Accreditation of Laboratory Animal Care. Most of the behavioral testing was conducted during the light phase of the subjects' light/dark cycle, unless otherwise dictated by the experimental design due to time-course assessment of behavioral parameters. Apparatus The experimental apparatus consisted of 16 Plexiglas chambers (30.5×30×17 cm) (Med Associates Inc., St. Albans, Vt.) encased in sound-attenuating boxes (San Diego Instruments, San Diego, Calif.). Each operant chamber consisted of a stainless steel grid floor and a metal wheel manipulandum located on one wall, which required a 0.2 N force to rotate it a quarter turn. Gold-contact swivel commutators and bipolar leads connected the animals in the stimulation circuit (Plastics One, Roanoke, Va.). Brain stimulation was administered by constant current stimulators (Stimtek 1200, San Diego Instruments, San Diego, Calif.). […] During a 2 sec period immediately following a positive response, further responses were recorded as extra responses but had no consequence. If no response occurred during the 7.5 sec limited hold period a negative response was recorded. […] Thus, during each session, four current-thresholds were recorded and the mean of these values was taken as the current-threshold for each subject for each test session. Response Latency: The latency between the onset of the non-contingent stimulus and a positive response was recorded as the response latency. […]

[4] = tested on: male Wistar rats; test: Reward deficits during amphetamine withdrawal (ICSS thresholds, response latencies, body weight); conditions: for response latencies during withdrawal: 36 hr after the final amphetamine or saline injection; for return to baseline reward threshold levels before the amphetamine-withdrawing non-drug-treated rats: acute treatment prior to the 36 hr test, paroxetine 1.25 mg/kg, p-MPPI 3 mg/kg; for body weight during amphetamine withdrawal: amphetamine-exposed rats; for reward thresholds: saline-exposed animals, paroxetine 1.25 mg/kg or p-MPPI 3 mg/kg
Description: Male Wistar rats (Charles River, Hollister, Calif.) (300-320 g at the start of the experiments) were housed in pairs in a temperature and humidity controlled environment with a 12 hr light/dark cycle. Food and water were available ad libitum. A different set of subjects was used for each experiment. All subjects were treated in accordance with the National Institutes of Health “Guide for the Care and Use of Laboratory Animals,” and the animal facilities and the experimental protocols were in accordance with the Association for the Assessment and Accreditation of Laboratory Animal Care. Most of the behavioral testing was conducted during the light phase of the subjects' light/dark cycle, unless otherwise dictated by the experimental design due to time-course assessment of behavioral parameters. Apparatus The experimental apparatus consisted of 16 Plexiglas chambers (30.5×30×17 cm) (Med Associates Inc., St. Albans, Vt.) encased in sound-attenuating boxes (San Diego Instruments, San Diego, Calif.). Each operant chamber consisted of a stainless steel grid floor and a metal wheel manipulandum located on one wall, which required a 0.2 N force to rotate it a quarter turn. Gold-contact swivel commutators and bipolar leads connected the animals in the stimulation circuit (Plastics One, Roanoke, Va.). Brain stimulation was administered by constant current stimulators (Stimtek 1200, San Diego Instruments, San Diego, Calif.). Surgical Procedure The rats were prepared with 11 mm stainless steel bipolar electrodes (Plastics One; diameter=0.25 mm) in the posterior lateral hypothalamus (AP −0.5 mm from bregma; L±1.7 mm; DV −8.3 mm from dura, with the incisor bar set at 5 mm above the interaural line; Pellegrino et al. 1979 under halothane anaesthesia (1-1.5% halothane/oxygen mixture). Subjects were allowed to recover for at least seven days before any behavioral testing. Half of the electrodes were positioned on the right hemisphere and the other half on the left hemisphere to counterbalance possible brain asymmetries. […] The subjects were initially trained to turn the wheel manipulandum on a fixed ratio 1 schedule of reinforcement. […] The current intensity delivered was adjusted for each animal and typically ranged from 100 to 200 μA. After successful familiarization with this procedure (2 sessions of 100 reinforcers in less than 20 minutes), the rats were gradually trained on a discrete-trial, current-threshold procedure. At the start of each trial rats received a non-contingent electrical stimulus. During the following 7.5 sec, the limited hold, if the subjects responded by turning the wheel manipulandum a quarter turn (positive response) they received a second, contingent stimulus identical to the previous non-contingent stimulus. During a 2 sec period immediately following a positive response, further responses were recorded as extra responses but had no consequence. If no response occurred during the 7.5 sec limited hold period a negative response was recorded. […] Stimulation intensities were varied according to the classical psychophysical method of limits. The subjects received four alternating series of ascending and descending current intensities starting with a descending series. Within each series the stimulus intensity was altered by 5 μA steps between each set of trials (three trials per set). After training in the above procedure, rats were tested until stable baseline thresholds had been achieved L+10% over a 5-day period). […] During the ascending series, the reverse situation defined the threshold. Thus, during each session, four current-thresholds were recorded and the mean of these values was taken as the current-threshold for each subject for each test session. Response Latency: The latency between the onset of the non-contingent stimulus and a positive response was recorded as the response latency. The response latency for each test session was defined as the mean response latency of all trials during which a positive response occurred. […]

[5] = Lemberger et al. 1985; Prakash and Foster 1999; cited from earlier work
[6] = tested on: rats; conditions: single high dose 120-300 mg/kg orally, rats (Ryan et al. 2001); cited from earlier work
[7] = tested on: male Wistar rats
Description: as §1
Systemic administration experiments. These experiments investigated whether nicotine withdrawal, as measured by elevations in ICSS thresholds, could be precipitated in nicotine-treated rats by systemic administration of an agonist at mGluII receptors (LY314582), an agonist at GABAB receptors (CGP44532), or antagonists at mGlu5 (MPEP), NMDA (MK-801) or AMPA/Kainate (NBQX) glutamate receptors. For each drug tested, rats were trained in the ICSS paradigm until stable baseline responding was achieved, defined as ≦10% variation in thresholds for 3 consecutive days and requiring approximately 14 days of daily testing. […] One group was then prepared with subcutaneous osmotic mini-pumps delivering vehicle and the second group with mini-pumps delivering 9 mg/kg/day nicotine hydrogen tartrate (3.16 mg/kg/day nicotine free base). There was a minimum seven-day interval after mini-pump implantation, during which ICSS reward thresholds continued to be measured daily, before the effect of any systemically administered drug on reward thresholds was evaluated.

[8] = tested on: male Wistar rats; test: ICSS thresholds after intra-ventral tegmental area LY314582; format: in vivo, rat
Description: All injections were administered bilaterally in a volume of 0.5 μl/side given over 66 sec through 17 mm injectors. The injectors were connected to calibrated polyethylene-10 tubing preloaded with drug solution and protruded 3 mm below the ends of the cannulas into the VTA. After infusion, the injectors were kept in place for an additional 60 sec to allow for drug diffusion. Injectors were then removed and replaced with 14 mm wire stylets, and the animals then placed directly into the ICSS testing apparatus. Injections were made using a Harvard microinfusion pump (Model 975).
After stable baseline ICSS responding was achieved (≦10% variation in threshold for 3 consecutive days), rats (n=15) with bilateral cannulas directed toward the VTA were allocated to two groups such that there were no differences in mean baseline reward thresholds or body weight between groups. […] Animals again were tested in the ICSS paradigm each day for seven days prior to drug treatment. […] There was a minimum 48 h interval between each injection, during which ICSS thresholds continued to be measured, to allow thresholds to return to baseline levels before further drug tests. At the conclusion of the experiment, all animals were anaesthetized and their brains removed and immediately placed on ice. The brains were cut in 50 μm sections, and placements of the injectors and the electrodes were examined (see FIG. 1 for histological verification of injection sites). Only those rats with injection tips located within the VTA were included in statistical analyses.

[9] = tested on: drug-naïve rats; conditions: previous studies (Harrison et al., 2002; Macey et al., 2001); cited from earlier work
[10] = tested on: male Wistar rats; conditions: 5 mg/kg fluoxetine alone (Harrison et al. 2001); cited from earlier work

N[C@](CC1c2ccccc2Oc2ccccc21)(C(=O)O)[C@H]1C[C@@H]1C(=O)O [LY341495, 2S-2-amino-2-(1S,2S-2-carboxycyclopropan-1-yl)-3-(xanth-9-yl)propionic acid]
ICSS reward thresholds ([1]; control rats): without affecting thresholds in control rats
ICSS reward thresholds ([1]; nicotine-withdrawing rats, p<0.001): significantly attenuated the elevations in reward thresholds in nicotine-withdrawing rats
ICSS response Latencies ([1]; LY341495 1 mg/kg): had no effect on response latencies at any time-point after injection
nicotine responding ([2]; 0.1, 0.5, 3 and 5 mg/kg LY341495): significantly decreased nicotine responding
decrease of nicotine self-administration ([2]; LY341495 0.5 mg/kg): approximately 35%
nicotine self-administration ([2]; LY341495 0.5 mg/kg alone, p<0.05): significantly decreased nicotine self-administration

Fc1ccc([C@@H]2CCNC[C@H]2COc2ccc3c(c2)OCO3)cc1 [paroxetine, Paroxetine hydrochloride]
brain reward thresholds ([3]; paroxetine 1.25-10 mg/kg, 120 min before test): had no statistically significant effect on thresholds
response latencies during withdrawal [4]: significantly slower than those of either vehicle or p-MPPI treated rats
return to baseline reward threshold levels before the amphetamine-withdrawing non-drug-treated rats [4]: 24 h
body weight during amphetamine withdrawal [4]: did not gain weight during withdrawal
reward thresholds [4]: Neither paroxetine (FIG. 4A & 4D) nor p-MPPI (FIG. 20B and 20E) had an effect on thresholds of saline-exposed animals
half-life [5]: approximately 24 hours
body weight and food consumption [6]: produces a reduction in body weight and food consumption

NC1(C(=O)O)CCC2C(C(=O)O)C21 (racemic) [LY314582, 2-aminobicyclo(3.1.0)hexane-2,6-dicarboxylic acid]
ICSS reward thresholds ([7]; 7.5 mg/kg i.p., nicotine-treated rats, p<0.01): elevated reward thresholds in nicotine-treated rats compared to vehicle treatment
ICSS reward thresholds ([7]; 2.5-7.5 mg/kg intraperitoneal, nicotine-treated and control rats): elevated ICSS reward thresholds in nicotine-treated but not control rats
ICSS response Latencies ([7]; LY314582 2.5-7.5 mg/kg i.p., any dose tested): had no effect on response latencies in nicotine-treated or control rats
ICSS response Latencies ([8]; after VTA administration, nicotine-treated or control rats): had no effect on response latencies
ICSS reward thresholds ([8]; bilateral microinfusion into the VTA, 10-100 ng/side): significantly elevated reward thresholds in nicotine-treated but not control rats
ICSS reward thresholds ([8]; intra-VTA 50 and 100 ng/side): sufficient to elevate reward thresholds in nicotine-treated rats without affecting thresholds in control rats
dose that elevated ICSS thresholds in drug-naïve rats [9]: ≥ 10 mg/kg

COc1ccccc1N1CCN(CCN(C(=O)c2ccc(I)cc2)c2ccccn2)CC1.Cl [p-MPPI]
reward thresholds ([3]; p-MPPI 1, 3, 10 mg/kg alone): had no effect on reward thresholds
response latencies ([3]; p-MPPI 1-10 mg/kg (Example 4.2)): had no effect on response latencies
response latencies during withdrawal [4]: had no effect on response latencies
return to baseline reward threshold levels before the amphetamine-withdrawing non-drug-treated rats [4]: 24 h
body weight during amphetamine withdrawal [4]: appeared to gain weight similarly to vehicle-treated rats
reward thresholds [4]: Neither paroxetine (FIG. 4A & 4D) nor p-MPPI (FIG. 20B and 20E) had an effect on thresholds of saline-exposed animals

CNCCC(Oc1ccc(C(F)(F)F)cc1)c1ccccc1 (stereo not drawn) [fluoxetine]
duration of amphetamine withdrawal reward deficits [10]: reduced the duration of the reward deficits
